Reference: article PMC4787807 (Nucleic Acids Research, 2015)

Molecular target: EAV nsp9 (Equine arteritis virus Bucyrus, UniProt P19811)
Test: covalent labelling, tryptic digest and nano-LC-MS/MS

Sequence of EAV nsp9 (P19811 1678-2370): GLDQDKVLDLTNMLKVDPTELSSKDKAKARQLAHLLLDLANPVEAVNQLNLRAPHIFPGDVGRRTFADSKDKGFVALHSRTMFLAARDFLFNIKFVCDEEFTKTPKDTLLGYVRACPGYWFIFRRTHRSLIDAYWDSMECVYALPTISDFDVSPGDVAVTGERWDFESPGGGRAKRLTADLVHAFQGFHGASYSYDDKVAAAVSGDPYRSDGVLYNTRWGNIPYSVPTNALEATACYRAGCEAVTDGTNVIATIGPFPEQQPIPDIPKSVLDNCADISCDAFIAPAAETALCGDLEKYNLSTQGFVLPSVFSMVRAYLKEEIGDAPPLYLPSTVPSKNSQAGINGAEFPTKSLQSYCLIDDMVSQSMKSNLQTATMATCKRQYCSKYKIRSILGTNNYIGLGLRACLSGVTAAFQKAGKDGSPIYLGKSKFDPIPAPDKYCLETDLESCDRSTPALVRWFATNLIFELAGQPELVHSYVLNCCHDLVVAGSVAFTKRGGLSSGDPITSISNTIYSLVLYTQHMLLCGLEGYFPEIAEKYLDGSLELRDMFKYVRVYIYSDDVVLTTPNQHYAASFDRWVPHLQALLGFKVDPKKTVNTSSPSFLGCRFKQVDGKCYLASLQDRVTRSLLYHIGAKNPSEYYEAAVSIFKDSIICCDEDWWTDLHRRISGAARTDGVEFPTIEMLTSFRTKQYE

SMILES: Nc1nc2c(ncn2[C@@H]2O[C@H](COC(=O)c3ccc(S(=O)(=O)F)cc3)[C@@H](O)[C@H]2O)c(=O)[nH]1 [FSBG, 5′-(4-fluorosulfonylbenzoyl)guanosine]
- covalent labelling, tryptic digest and nano-LC-MS/MS: seven modified peptides representing five distinct nsp9 regions could be assigned
